Measurements from patent US12251382B2, “Substituted amino-pyrimidine compound for use in a method for treatment and prevention of multiple sclerosis” (Merck Patent GmbH, priority 2018, dated 2025).

What was measured:
[1] = test system: human patients suffering from relapsing multiple sclerosis (RMS); experiment: Phase II RMS study: brain MRI (Gd+ T1 lesions, T2 lesions); assay type: in vivo; set-up: key to Gd+ T1 lesion rate (subject level), Median / Gd+ T1 Lesion rate, adjusted (negative binomial model): number of Gd+ T1 lesions per scan; conditions: for New or enlarging T2 lesion rate (subject level), Mean ± SD: Weeks 12-24; for Difference in LS means of CFB in cube root of volume of T2 lesions vs placebo: week 24, MMRM
Experimental: The assessing Investigator and central MRI reader were treatment blinded.
The protocol specified that subjects self-administered the IMP at a set time each day (every 12 hours ±2 hours). Subjects were to take their daily dose more than 1 hour prior to a meal or snack and more than 2 hours after a meal or snack. Clear fluids were allowed at any time. On trial visit days, the IMP was to be administered during the trial visit after the scheduled trial visit procedures (other than post-treatment PK/PD sampling) are completed.
Stratification occurred by region (USA or Western Europe, Eastern Europe and BTKO capable, Eastern Europe and not BTKO capable, and RoW). For the first 7 days, Tecfidera was administered orally at 120 mg twice daily. Following this and for the duration of treatment, Tecfidera was administered orally at 240 mg twice daily.
The protocol specified that MRI scans were to be performed at Screening, at 4-week intervals from Week 12 to 24, and at the End of Treatment Visit at Week 48 (including for subjects receiving Tecfidera who choose to enter the OLE Period). […] If a subject discontinued the study more than 4 weeks after his or her most recent MRI, the protocol specified that an MRI may be obtained at the 4-week Safety Follow-up Visit. The Screening MRI scan was to be acquired before randomization and dosing to allow for the readouts to be read by the central MRI reader (approximately 7 days).
Gadolinium was used to enhance T1-weighted lesions and to optimize clarity and accuracy of reporting. As gadolinium is excreted renally, subjects with acute renal insufficiency (eGFR <45 mL/min/1.73 m^2) will be excluded from the trial.
The protocol specified that brain MRI scans were performed according to a standardized imaging protocol before and after the administration of single-dose gadolinium. Images were assessed and reported by an independent, blinded, centralized MRI reading service, provided by NeuroRx Research. The assessment was performed in the absence of clinical information. Further details, including the scans required and the optimal MRI workflow, were provided in a separate Imaging Manual provided to each trial site by NeuroRx Research. All MRI images were reviewed and reported locally by a radiologist for safety. The local report was to contain only non-MS pathology and was to be provided to the Treating Investigator.
The primary endpoint was the total number of gadolinium-enhancing T1 lesions at Week 12, 16, 20, and 24. The primary analysis was a comparison of each evobrutinib dose arm versus placebo based on this endpoint, with a supportive test for dose-response. Secondary Endpoints
Other covariates were permitted to be considered. […] Descriptive statistics for the total number of Gd+ T1 lesions, at Week 12, 16, 20, and 24, are provided for each treatment group.
Estimation of mean per-scan number of Gd+ T1 lesions at Weeks 12, 16, 20, and 24, for each treatment group, was based on the NB model. In the analysis of each secondary endpoint, other covariates were permitted to be included in the model.
Primary and secondary efficacy endpoints were analysed based on the modified intention-to-treat (mITT) analysis set, consisting of all randomized patients with at least one available baseline and one post-baseline MRI assessment. […] For each endpoint, rate ratio (RR; null-hypothesis RR=1.0) adjusted for baseline disease activity was reported together with associated 95% CI and p-value. The T2 lesion endpoint was analysed similarly. Dose-response relationships between evobrutinib treatment dose and primary and key secondary endpoints were assessed for linear and monotonic trend. The analysis of CFB in cube root of volume of T2 lesions at Week 24 was based on a mixed-effect model for repeated measures, with fixed effects for treatment, week of visit, and treatment-by-week interaction, random effect for subject, and adjustment for baseline cube root of lesion volume. CFB in SF-36 score at Week 24 was analysed similarly. […]

RA and SLE models = conditions: in vivo; cited from earlier work
M1 macrophages = conditions: in vitro; cited from earlier work
[2] = 25 mg QD, listed as evobrutinib
[3] = 75 mg BID, listed as evobrutinib

C=CC(=O)N1CCC(CNc2ncnc(N)c2-c2ccc(Oc3ccccc3)cc2)CC1 [Evobrutinib, 1-(4-(((6-amino-5-(4-phenoxyphenyl)pyrimidin-4-yl)amino)methyl)piperidin-1-yl)prop-2-en-1-one]
Change in volume of T2 lesions from baseline to week 24, Mean ± SD ([1]; 25 mg QD): 0.93 ± 1.85 cc
Change in volume of T2 lesions from baseline to week 24, Median ([1]; 25 mg QD): 0.05 cc
Gd+ T1 Lesion rate, adjusted (negative binomial model) ([1]; 25 mg QD): 1.09
Gd+ T1 lesion rate (subject level), Median ([1]; 25 mg QD): 0.25
Gd+ T1 lesion rate (subject level; count per scan, weeks 12-24), Mean ± SD ([1]; 25 mg QD): 1.31 ± 3.13
Total Number of New or Enlarging T2 Lesions at Week 24, Mean ± SD ([1]; 25 mg QD): 6.52 ± 11.57
Total number of Gd+ T1 lesions at Weeks 12, 16, 20, 24, Mean ± SD ([1]; 25 mg QD): 5.23 ± 12.52
Total number of Gd+ T1 lesions at Weeks 12, 16, 20, 24, Median (min-max) ([1]; 25 mg QD): 1 (0-76)
New or enlarging T2 lesion rate (subject level), Mean ± SD ([1]; 25 mg QD): 2.08 ± 4.19
Difference in LS means of CFB in cube root of volume of T2 lesions vs placebo ([1]; 25 mg QD): 0.05 cm
Change in volume of T2 lesions from baseline to week 24, Median [1, 2]: increased
Gd+ T1 lesion rate (subject level; count per scan, weeks 12-24), Mean ± SD [1, 2]: 1.31±3.13
Change in volume of T2 lesions from baseline to week 24, Mean ± SD ([1]; 75 mg BID): 0.06 ± 0.50 cc
Change in volume of T2 lesions from baseline to week 24, Median ([1]; 75 mg BID): −0.02 cc
Gd+ T1 Lesion rate, adjusted (negative binomial model) ([1]; 75 mg BID): 0.34
Gd+ T1 lesion rate (subject level), Median ([1]; 75 mg BID): 0.0
Gd+ T1 lesion rate (subject level; count per scan, weeks 12-24), Mean ± SD ([1]; 75 mg BID): 0.35 ± 0.96
Total Number of New or Enlarging T2 Lesions at Week 24, Mean ± SD ([1]; 75 mg BID): 2.26 ± 4.72
Total number of Gd+ T1 lesions at Weeks 12, 16, 20, 24, Mean ± SD ([1]; 75 mg BID): 1.39 ± 3.85
Total number of Gd+ T1 lesions at Weeks 12, 16, 20, 24, Median (min-max) ([1]; 75 mg BID): 0 (0-25)
New or enlarging T2 lesion rate (subject level), Mean ± SD ([1]; 75 mg BID): 0.73 ± 1.57
New or enlarging T2 lesion rate (subject level), Mean ± SD [1, 3]: 0.73±1.57
Difference in LS means of CFB in cube root of volume of T2 lesions vs placebo ([1]; 75 mg BID): −0.35 cm
Gd+ T1 lesion rate (subject level; count per scan, weeks 12-24), Mean ± SD [1, 3]: 0.35±0.96
Change in volume of T2 lesions from baseline to week 24, Mean ± SD ([1]; 75 mg QD): 0.01 ± 0.57 cc
Change in volume of T2 lesions from baseline to week 24, Median ([1]; 75 mg QD): −0.01 cc
Gd+ T1 Lesion rate, adjusted (negative binomial model) ([1]; 75 mg QD): 0.27
Gd+ T1 lesion rate (subject level), Median ([1]; 75 mg QD): 0.0
Gd+ T1 lesion rate (subject level; count per scan, weeks 12-24), Mean ± SD ([1]; 75 mg QD): 0.42 ± 1.17
Total Number of New or Enlarging T2 Lesions at Week 24, Mean ± SD ([1]; 75 mg QD): 3.57 ± 10.82
Total number of Gd+ T1 lesions at Weeks 12, 16, 20, 24, Mean ± SD ([1]; 75 mg QD): 1.69 ± 4.69
Total number of Gd+ T1 lesions at Weeks 12, 16, 20, 24, Median (min-max) ([1]; 75 mg QD): 0 (0-27)
Total number of Gd+ T1 lesions versus placebo ([1]; 75 mg QD and 75 mg BID, Weeks 12, 16, 20 and 24): significantly reduced Gd+ T1 lesions versus placebo
New or enlarging T2 lesion rate (subject level), Mean ± SD ([1]; 75 mg QD): 0.89 ± 2.71
Difference in LS means of CFB in cube root of volume of T2 lesions vs placebo ([1]; 75 mg QD): −0.35 cm
Gd+ T1 lesion rate (subject level; count per scan, weeks 12-24), Mean ± SD ([1]; 75 mg QD, listed as evobrutinib): 0.42±1.17
Total Gd+ T1 lesions over 4 scans in an outlier patient ([1]; one patient, 25 mg QD): 76
Dose response of Gd+ T1 lesion count ([1]; weeks 12-24, p<0.01): significant dose response was observed
Activity in RA and SLE models (RA and SLE models): robust activity
Effects on macrophages (M1 macrophages): inhibiting the activation, differentiation and polarisation of M1 macrophages and by promoting the M2 macrophage-phenotype
